Data taken from PubChem BioAssay (NCI).
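48-hour exposure; five concentrations; linearly interpolated endpoints. At the GI50, growth is halved. The concentration for full growth arrest is given as TGI.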

Key:
Test in all cases: inhibition of tumour cell growth, NCI panel, 48 h
[1] = tested on: NCI-H522 lung
[2] = tested on: OVCAR-5 ovarian
[3] = tested on: SF-268 CNS
[4] = tested on: SK-OV-3 ovarian
[5] = tested on: PC-3 prostate
[6] = tested on: RXF 393 renal
[7] = tested on: SF-539 CNS
[8] = tested on: HCT-15 colon
[9] = tested on: OVCAR-3 ovarian
[10] = tested on: HS 578T breast
[11] = tested on: SW-620 colon
[12] = tested on: IGROV1 ovarian
[13] = tested on: T-47D breast
[14] = tested on: HL-60(TB) leukemia
[15] = tested on: SK-MEL-2 melanoma
[16] = tested on: NCI-H460 lung
[17] = tested on: TK-10 renal
[18] = tested on: OVCAR-8 ovarian
[19] = tested on: BT-549 breast
[20] = tested on: CAKI-1 renal
[21] = tested on: RPMI-8226 leukemia
[22] = tested on: SK-MEL-28 melanoma
[23] = tested on: HCC-2998 colon
[24] = tested on: M14 melanoma
[25] = tested on: OVCAR-4 ovarian
[26] = tested on: A549 NSCLC
[27] = tested on: UACC-257 melanoma
[28] = tested on: NCI-H226 lung
[29] = tested on: SF-295 CNS
[30] = tested on: MDA-MB-435
[31] = tested on: SN12C renal
[32] = tested on: CCRF-CEM leukemia
[33] = tested on: HOP-62 NSCLC
[34] = tested on: SR leukemia
[35] = tested on: COLO 205 colon
[36] = tested on: U251 CNS
[37] = tested on: SK-MEL-5 melanoma
[38] = tested on: 786-0 renal
[39] = tested on: SNB-75 CNS
[40] = tested on: LOX IMVI melanoma
[41] = tested on: DU-145 prostate
[42] = tested on: MOLT-4 leukemia
[43] = tested on: SNB-19 CNS
[44] = tested on: ACHN renal
[45] = tested on: EKVX NSCLC
[46] = tested on: K-562 leukemia
[47] = tested on: UACC-62 melanoma
[48] = tested on: MCF7 breast
[49] = tested on: HOP-92 NSCLC
[50] = tested on: MALME-3M melanoma
[51] = tested on: A498 renal
[52] = tested on: UO-31 renal
[53] = tested on: NCI/ADR-RES ovarian
[54] = tested on: HCT-116 colon
[55] = tested on: NCI-H23 lung
[56] = tested on: KM12 colon
[57] = tested on: HT29 colon
[58] = tested on: MDA-MB-231 breast

With CC(=O)Nc1cccc(C#Cc2cncnc2Nc2ccc(OCc3cccc(F)c3)c(Cl)c2)n1 the GI50 [1] was 8.25 µM, the TGI [1] was > 25 µM and the GI50 [2] was > 23.4 µM. The TGI [2] was > 25 µM, the GI50 [3] was > 18.8 µM and the TGI [3] was > 25 µM. The GI50 [4] was 1.06 µM, the TGI [4] was > 25 µM and the GI50 [5] was 9.4 µM. The TGI [5] was > 25 µM, the GI50 [6] was 20.8 µM and the TGI [6] was > 25 µM. The GI50 [7] was > 23.3 µM, the TGI [7] was > 25 µM and the GI50 [8] was > 25 µM. The TGI [8] was > 25 µM, the GI50 [9] was > 21.6 µM and the TGI [9] was > 25 µM. For the same compound, the GI50 [10] was 24.9 µM, the TGI [10] was > 25 µM and the GI50 [11] was 23.1 µM. For the same compound, the TGI [11] was > 25 µM, the GI50 [12] was 4.2 µM and the TGI [12] was > 25 µM. The GI50 [13] was 2.57 µM, the TGI [13] was > 25 µM and the GI50 [14] was > 25 µM. The TGI [14] was > 25 µM, the GI50 [15] was 10.4 µM and the TGI [15] was > 25 µM. The GI50 [16] was 11.9 µM, the TGI [16] was > 25 µM and the GI50 [17] was 0.412 µM. For the same compound, the TGI [17] was > 17.6 µM, the GI50 [18] was 15.4 µM and the TGI [18] was > 25 µM. The GI50 [19] was > 25 µM, the TGI [19] was > 25 µM and the GI50 [20] was 2.28 µM. The TGI [20] was > 25 µM, the GI50 [21] was > 25 µM and the TGI [21] was > 25 µM. For the same compound, the GI50 [22] was 14.8 µM, the TGI [22] was > 25 µM and the GI50 [23] was > 25 µM. The TGI [23] was > 25 µM, the GI50 [24] was 16.1 µM and the TGI [24] was > 25 µM. The GI50 [25] was > 22.7 µM, the TGI [25] was > 25 µM and the GI50 [26] was 6.81 µM. The TGI [26] was > 25 µM, the GI50 [27] was > 21.5 µM and the TGI [27] was > 25 µM. For the same compound, the GI50 [28] was > 17.8 µM, the TGI [28] was > 25 µM and the GI50 [29] was 13.7 µM. The TGI [29] was > 25 µM, the GI50 [30] was > 20.4 µM and the TGI [30] was > 25 µM. For the same compound, the GI50 [31] was > 25 µM, the TGI [31] was > 25 µM and the GI50 [32] was > 25 µM. For the same compound, the TGI [32] was > 25 µM, the GI50 [33] was 10.3 µM and the TGI [33] was > 25 µM. The GI50 [34] was > 25 µM, the TGI [34] was > 25 µM and the GI50 [35] was > 22.2 µM. For the same compound, the TGI [35] was > 25 µM, the GI50 [36] was 7.14 µM and the TGI [36] was > 23.4 µM. The GI50 [37] was > 18.8 µM, the TGI [37] was > 25 µM and the GI50 [38] was > 22.5 µM. The TGI [38] was > 25 µM, the GI50 [39] was 11.9 µM and the TGI [39] was > 25 µM. For the same compound, the GI50 [40] was > 18.5 µM, the TGI [40] was > 25 µM and the GI50 [41] was 8.62 µM. For the same compound, the TGI [41] was > 25 µM, the GI50 [42] was > 25 µM and the TGI [42] was > 25 µM. The GI50 [43] was > 21.7 µM, the TGI [43] was > 25 µM and the GI50 [44] was 2.87 µM. For the same compound, the TGI [44] was > 25 µM, the GI50 [45] was 0.475 µM and the TGI [45] was > 25 µM. The GI50 [46] was > 25 µM, the TGI [46] was > 25 µM and the GI50 [47] was 24.4 µM. For the same compound, the TGI [47] was > 25 µM, the GI50 [48] was > 25 µM and the TGI [48] was > 25 µM. For the same compound, the GI50 [49] was 3.61 µM, the TGI [49] was 18.2 µM and the GI50 [50] was 9.55 µM. For the same compound, the TGI [50] was > 25 µM, the GI50 [51] was 1.22 µM and the TGI [51] was > 25 µM. For the same compound, the GI50 [52] was 22.5 µM, the TGI [52] was > 25 µM and the GI50 [53] was 20.7 µM. The TGI [53] was > 25 µM, the GI50 [54] was 11.6 µM and the TGI [54] was > 25 µM. For the same compound, the GI50 [55] was > 25 µM, the TGI [55] was > 25 µM and the GI50 [56] was > 25 µM. For the same compound, the TGI [56] was > 25 µM, the GI50 [57] was 17.6 µM and the TGI [57] was > 25 µM. For the same compound, the GI50 [58] was 6.04 µM and the TGI [58] was > 25 µM.
